pIC50: −log10 of the molar value.

Two compounds from BindingDB's records for doi:10.1038/nchembio.2326 (California Institute of Technology, 2017) can be followed below.

In experiment [1] the target is T1, Histone deacetylase 6 (Homo sapiens, UniProt Q9UBN7).
T1 sequence (Q9UBN7 whole entry): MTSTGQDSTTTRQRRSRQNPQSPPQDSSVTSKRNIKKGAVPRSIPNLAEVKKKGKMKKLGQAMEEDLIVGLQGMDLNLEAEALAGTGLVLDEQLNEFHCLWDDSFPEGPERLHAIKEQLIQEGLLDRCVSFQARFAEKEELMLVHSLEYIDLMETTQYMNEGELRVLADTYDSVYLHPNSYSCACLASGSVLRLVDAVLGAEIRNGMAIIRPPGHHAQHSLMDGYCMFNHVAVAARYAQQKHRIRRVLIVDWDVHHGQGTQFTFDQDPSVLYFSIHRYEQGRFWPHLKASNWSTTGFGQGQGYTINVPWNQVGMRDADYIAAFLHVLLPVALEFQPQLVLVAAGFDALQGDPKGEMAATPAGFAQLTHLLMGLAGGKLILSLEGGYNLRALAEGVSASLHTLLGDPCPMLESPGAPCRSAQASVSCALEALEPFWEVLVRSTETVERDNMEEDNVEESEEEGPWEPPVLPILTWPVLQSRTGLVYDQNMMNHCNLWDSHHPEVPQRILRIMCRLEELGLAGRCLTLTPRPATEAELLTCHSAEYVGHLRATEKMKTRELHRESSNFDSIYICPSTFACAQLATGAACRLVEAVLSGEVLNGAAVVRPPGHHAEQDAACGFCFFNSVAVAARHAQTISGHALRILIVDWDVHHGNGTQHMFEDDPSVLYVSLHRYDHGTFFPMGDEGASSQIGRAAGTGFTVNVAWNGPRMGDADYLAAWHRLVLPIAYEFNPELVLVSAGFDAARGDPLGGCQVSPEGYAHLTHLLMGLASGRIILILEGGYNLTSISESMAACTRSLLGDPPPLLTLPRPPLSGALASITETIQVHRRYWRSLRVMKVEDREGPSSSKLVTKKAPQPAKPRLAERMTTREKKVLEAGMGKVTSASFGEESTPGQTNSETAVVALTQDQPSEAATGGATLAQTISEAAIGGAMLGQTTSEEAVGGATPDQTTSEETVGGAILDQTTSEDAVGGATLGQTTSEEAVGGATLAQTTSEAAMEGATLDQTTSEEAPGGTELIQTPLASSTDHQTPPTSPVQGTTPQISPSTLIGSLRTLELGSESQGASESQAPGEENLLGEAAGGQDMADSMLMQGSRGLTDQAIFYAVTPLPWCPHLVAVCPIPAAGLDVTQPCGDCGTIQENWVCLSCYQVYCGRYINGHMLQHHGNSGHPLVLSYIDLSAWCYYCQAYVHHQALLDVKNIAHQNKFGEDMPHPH
The experiment can be described thus: HDAC6 Activity Assay. Conditions: pH 8; 37 °C. On the procedure: The enzyme was diluted with 25 mM Tris-Cl, 137 mM NaCl, 2.7 mM KCl, 1 mM MgCl2, 0.1 mg/ml BSA, pH 8.0 buffer and its activity was measured by using Substrate 3 (BPS Bioscience; catalog #50037). The assays were carried out in black, low-binding NUNC 96-well plates. Each well contained a volume of 50 μl including buffer, HDAC (50 ng/well), inhibitor, and substrate (20 μM). Prior to adding substrate, the plate was pre-incubated for 5 min. Upon addition of substrate, the plate was incubated at 37 °C for 30 min. At this point, HDAC assay developer (50 μl, BPS Bioscience; catalog #50030) was added to each well and the plate was incubated for 15 min at room temperature. The fluorescence was recorded with a BioTek FLx800 or Synergy H4 microplate reader.

Experiment [2] addresses BRISC and BRCA1-A complex member 1/BRISC and BRCA1-A complex member 2/BRISC complex subunit Abraxas 2/Lys-63-specific deubiquitinase BRCC36 (Human, UniProt P46736+Q15018+Q9NWV8+Q9NXR7). Briefly: In Vitro BRCC36 Activity Assay. On the procedure:
BRCC36 activity was measured using 1 nM purified BRISC complex and 80 nM di-ubiquitin substrate DiUbK63TAMRA (UF-310, Boston Biochem). TAMRA fluorescence intensity was monitored using a PHERAstar plate reader with excitation at 540 nm and emission at 590 nm. Reactions were performed in black low-volume 384-well plates and analyzed as described above.

The target in experiment [3] is Lactoylglutathione lyase (Homo sapiens, UniProt Q04760). Briefly: GLO1 Activity Assay. Conditions: pH 7; 25 °C. On the procedure:
Assays were carried out in 100 mM sodium phosphate, pH 7.0 buffer using 96-well Clear UV Plate (Corning UV Transparent Microplates; catalog #3635). A fresh solution of glutathione (pre-substrate 1, 100 mM) as well as methylglyoxal (pre-substrate 2, 100 mM) was prepared in deionized water. The substrate was prepared by adding 14.5 ml of buffer and 0.99 ml of each pre-substrate components. The substrate mixture was vortexed vigorously for 15 s, then allowed to sit at room temperature for 20 min. Initial well volume was 50 μl containing GLO1 (40 ng) and inhibitor. This protein and inhibitor mixture was incubated for 15–20 min before the addition of substrate. To this was then added substrate (150 μl), yielding a maximum amount of 5% DMSO per well. The enzyme activity was measured using a BioTek Synergy H4 plate reader by measuring absorbance at 240 nmevery 1 min for 8 min.

In experiment [4] the target is Macrophage metalloelastase (Homo sapiens, UniProt P39900). Briefly: MMP Activity Assay. Conditions: pH 7.5; 37 °C. The protocol:
(§1) The assay was carried out in white NUNC 96-well plates as previously described [Puerta et al., J. Biol. Inorg. Chem., 11:131-138]. Each well contained a total volume of 90 μl including buffer (50 mM HEPES, 10 mM CaCl2, 0.05% Brij-35, pH 7.5), human recombinant MMP (1.16 U/well for MMP2 and 0.007 U/well for MMP12), and the fragment solution. This mixture was incubated at 37 °C for 30 min. The reaction was then initiated by the addition of 10 μl of the fluorogenic MMP substrate (4 μM final concentration, Mca-Pro-Leu-Gly-Leu-Dpa-Ala-Arg-NH2-AcOH) (Mca = (7-methoxycoumarin-4-yl) acetyl; Dpa = N-3-(2,4-dinitrophenyl)-L-a,β-diaminopropionyl). Fluorescence measurements were recorded using a BioTek Synergy H4 fluorescence plate reader every minute for 20 min with excitation and emission wavelengths at 320 and 400 nm, respectively.

Experiment [5] addresses 72 kDa type IV collagenase (Homo sapiens, UniProt P08253). Briefly: MMP Activity Assay. The conditions noted are these: pH 7.5; 37 °C. The protocol:
as §1

Experiment [6] deals with 26S proteasome non-ATPase regulatory subunit 14 (Homo sapiens, UniProt O00487). The experiment can be described thus: In Vitro Rpn11 Activity Assay. The conditions noted are these: pH 7.5; 30 °C.
Sequence of 26S proteasome non-ATPase regulatory subunit 14 (O00487 whole entry): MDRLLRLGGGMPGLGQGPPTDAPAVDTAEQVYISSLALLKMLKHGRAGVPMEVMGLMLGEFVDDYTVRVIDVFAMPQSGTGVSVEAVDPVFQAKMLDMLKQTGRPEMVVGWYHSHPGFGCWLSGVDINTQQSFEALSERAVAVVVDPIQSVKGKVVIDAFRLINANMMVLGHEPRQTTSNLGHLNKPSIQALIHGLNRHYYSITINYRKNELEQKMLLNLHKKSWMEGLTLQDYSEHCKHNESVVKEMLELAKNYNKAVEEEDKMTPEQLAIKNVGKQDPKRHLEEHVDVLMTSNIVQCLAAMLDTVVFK
Protocol: Fluorescence polarization assays were performed in low-volume 384-well solid black plates (Molecular Devices) in quadruplicate. The assays were performed in buffer containing 50 mM Tris-HCl pH7.5, 1 mM MgCl2, 50 μM ATP, 1 mM DTT and 0.01% NP-40. The components for the assay were added in the following sequence: (1) 5 μl compound (in 3% DMSO) at different concentrations, (2) 5 μl of diluted human 26S proteasome (Enzo Life Sciences, NY. 26S proteasome was pre-incubated with epoxomicin at room temperature for 1 h, then diluted ten-fold in 1× Assay Buffer), and (3) 5 μl of substrate (3 nM Ub4peptideOG). 100 μM Zn(cyclen)2+ was present in the titration reaction for the experiments performed with Zn(cyclen)2+. Fluorescence polarization was measured at 30 °C using a PHERAstar plate reader (BMG Labtech) with excitation at 480 nm and emission at 520 nm.

Sequence of Macrophage metalloelastase (P39900 whole entry, the tested form may be a part): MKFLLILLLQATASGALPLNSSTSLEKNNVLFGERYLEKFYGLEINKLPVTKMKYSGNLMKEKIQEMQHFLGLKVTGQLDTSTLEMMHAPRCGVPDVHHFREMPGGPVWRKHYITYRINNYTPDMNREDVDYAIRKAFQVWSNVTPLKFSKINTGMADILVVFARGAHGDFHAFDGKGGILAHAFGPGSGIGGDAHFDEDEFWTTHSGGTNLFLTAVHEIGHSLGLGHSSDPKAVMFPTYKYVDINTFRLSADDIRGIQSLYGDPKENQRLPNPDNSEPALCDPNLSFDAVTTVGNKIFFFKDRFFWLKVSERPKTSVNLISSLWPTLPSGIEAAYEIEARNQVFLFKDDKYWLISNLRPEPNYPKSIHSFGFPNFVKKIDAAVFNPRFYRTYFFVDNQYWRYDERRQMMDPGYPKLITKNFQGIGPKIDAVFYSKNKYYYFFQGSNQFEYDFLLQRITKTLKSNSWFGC
Sequence of Lactoylglutathione lyase (Q04760 whole entry): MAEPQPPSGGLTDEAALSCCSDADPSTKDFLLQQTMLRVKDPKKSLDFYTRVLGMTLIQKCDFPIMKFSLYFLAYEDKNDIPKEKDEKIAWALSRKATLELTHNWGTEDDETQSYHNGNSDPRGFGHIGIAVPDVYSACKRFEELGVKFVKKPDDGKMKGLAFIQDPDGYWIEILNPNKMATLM
Sequence of 72 kDa type IV collagenase (P08253 whole entry): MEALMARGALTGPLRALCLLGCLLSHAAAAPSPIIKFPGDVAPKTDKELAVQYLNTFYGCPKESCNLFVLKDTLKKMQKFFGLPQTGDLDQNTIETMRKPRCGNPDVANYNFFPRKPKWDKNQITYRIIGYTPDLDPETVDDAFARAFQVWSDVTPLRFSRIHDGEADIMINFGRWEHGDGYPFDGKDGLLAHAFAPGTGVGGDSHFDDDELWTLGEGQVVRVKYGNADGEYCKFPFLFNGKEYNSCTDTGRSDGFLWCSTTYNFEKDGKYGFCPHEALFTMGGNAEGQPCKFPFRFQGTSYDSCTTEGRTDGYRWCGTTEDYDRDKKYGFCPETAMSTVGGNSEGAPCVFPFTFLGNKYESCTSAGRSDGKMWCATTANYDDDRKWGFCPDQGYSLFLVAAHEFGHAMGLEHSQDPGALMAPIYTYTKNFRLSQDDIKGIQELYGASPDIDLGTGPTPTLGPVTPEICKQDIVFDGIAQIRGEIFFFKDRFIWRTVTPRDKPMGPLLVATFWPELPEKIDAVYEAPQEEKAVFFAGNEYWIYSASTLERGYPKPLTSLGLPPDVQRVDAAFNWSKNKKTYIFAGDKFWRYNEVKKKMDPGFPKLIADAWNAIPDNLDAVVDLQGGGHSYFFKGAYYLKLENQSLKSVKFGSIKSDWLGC

Regarding `O=C(NCCc1nccs1)c1cnc2c(S)cccc2c1` [Capzimin], the negative logarithm of the IC50 (pIC50) in experiment [1] was less than 3.70; in experiment [2] it was 5.64; in experiment [3], 4.37; in experiment [4] it was less than 4.30; in experiment [5], less than 4.30.

With `Sc1cccc2cccnc12` [8-Mercaptoquinoline (8TQ)], in experiment [6], the pIC50 is 5.62.
